According to patent publication US20240327397A1, “Pesticidally Active Fused Bicyclic Heteroaromatic Compounds” (SYNGENTA CROP PROTECTION AG, priority 2021, published 2024):

Tests used:
Type in all cases: in vivo
[1] = tested on: Plutella xylostella (Diamond Back Moth); assay: Example B3: Plutella xylostella, artificial diet in 24-well plates, eggs; conditions: 192 h, application rate 200 ppm, 8 days after infestation, versus untreated, read-out: effect in at least one of the two categories (mortality or growth inhibition)
Experimental: Example B3: Plutella xylostella (Diamond Back Moth)
24-well microtiter plates with artificial diet were treated with aqueous test solutions prepared from 10'000 ppm DMSO stock solutions by pipetting. After drying, Plutella eggs were pipetted through a plastic stencil onto a gel blotting paper and the plate was closed with it. The samples were assessed for mortality and growth inhibition in comparison to untreated samples 8 days after infestation.

[2] = tested on: Chilo suppressalis (Striped Rice Stemborer); assay: Example B1: Chilo suppressalis, artificial diet in 24-well plates, L2 larvae; conditions: 144 h, application rate 200 ppm, 6 days after infestation, versus untreated, read-out: control (at least one of mortality, anti-feedant effect, growth inhibition)
Experimental: Example B1: Chilo suppressalis (Striped Rice Stemborer)
24-well microtiter plates with artificial diet were treated with aqueous test solutions prepared from 10'000 ppm DMSO stock solutions by pipetting. After drying, the plates were infested with L2 larvae (6-8 per well). The samples were assessed for mortality, anti-feeding effect, and growth inhibition in comparison to untreated samples 6 days after infestation. Control of Chilo suppressalis by a test sample is given when at least one of the categories mortality, anti-feedant effect, and growth inhibition is higher than the untreated sample.

[3] = tested on: Diabrotica Balteata (Corn Root Worm); assay: Example B2: Diabrotica balteata, sprayed maize sprouts on agar, L2 larvae; conditions: 96 h, application rate 200 ppm, 4 days after infestation, versus untreated, read-out: effect in at least one of the two categories (mortality or growth inhibition)
Experimental: Example B2: Diabrotica Balteata (Corn Root Worm)
Maize sprouts placed onto an agar layer in 24-well microtiter plates were treated with aqueous test solutions prepared from 10'000 ppm DMSO stock solutions by spraying. After drying, the plates were infested with L2 larvae (6 to 10 per well). The samples were assessed for mortality and growth inhibition in comparison to untreated samples 4 days after infestation.

[4] = tested on: Spodoptera littoralis (Eqyptian Cotton Leaf Worm); assay: Example B4: Spodoptera littoralis, sprayed cotton leaf discs, L1 larvae; conditions: foliar, 72 h, application rate 200 ppm, 3 days after infestation, versus untreated, read-out: control (at least one of mortality, anti-feedant effect, growth inhibition)
Experimental: Example B4: Spodoptera littoralis (Eqyptian Cotton Leaf Worm)
Cotton leaf discs were placed onto agar in 24-well microtiter plates and sprayed with aqueous test solutions prepared from 10'000 ppm DMSO stock solutions. After drying the leaf discs were infested with five L1 larvae. The samples were assessed for mortality, anti-feeding effect, and growth inhibition in comparison to untreated samples 3 days after infestation. Control of Spodoptera littoralis by a test sample is given when at least one of the categories mortality, anti-feedant effect, and growth inhibition is higher than the untreated sample.

[5] = tested on: Frankliniella occidentalis (Western Flower Thrips); assay: Example B5: Frankliniella occidentalis, feeding/contact activity, sunflower leaf discs; conditions: foliar, 168 h, application rate 200 ppm, population of mixed ages, 7 days after infestation
Experimental: Example B5: Frankliniella occidentalis (Western Flower Thrips). Feedinq/Contact Activity
Sunflower leaf discs were placed on agar in 24-well microtiter plates and sprayed with aqueous test solutions prepared from 10'000 DMSO stock solutions. After drying the leaf discs were infested with a Frankliniella population of mixed ages. The samples were assessed for mortality 7 days after infestation.

[6] = tested on: Myzus persicae (Green Peach Aphid); assay: Example B7: Myzus persicae, intrinsic activity, sucrose solution under Parafilm; conditions: 120 h, test rate 12 ppm, 5 days after infestation
Description: Example B7: Myzus persicae (Green Peach Aphid). Intrinsic Activity
Test compounds prepared from 10'000 ppm DMSO stock solutions were applied by pipette into 24-well microtiter plates and mixed with sucrose solution. The plates were closed with a stretched Parafilm. A plastic stencil with 24 holes was placed onto the plate and infested pea seedlings were placed directly on the Parafilm. The infested plate was closed with a gel blotting paper and another plastic stencil and then turned upside down. The samples were assessed for mortality 5 days after infestation.

CC(NC1=CS(C)(=O)=Nc2c1cc(C(F)(F)F)cc2C(F)(F)F)c1ncnn1-c1ncccn1 (stereo not shown) [P2, 3-methyl-3-oxo-N-[1-(2-pyrimidin-2-yl-1,2,4-triazol-3-yl)ethyl]-8,10-bis(trifluoromethyl)-3λ^6-thia-2-azabicyclo[4.4.0]deca-1(6),2,4,7,9-pentaen-5-amine]
≥ 80%: percent effect (mortality or growth inhibition) at 200 ppm [1] | percent control (mortality, anti-feedant effect or growth inhibition) at 200 ppm [2] | percent effect (mortality or growth inhibition) at 200 ppm [3] | percent control (mortality, anti-feedant effect or growth inhibition) at 200 ppm [4]

C[C@H](NC1=N[S@@](C)(=O)=Nc2c(Br)cc(Br)cc21)c1ncnn1-c1ccc(C#N)cn1 (single isomer, unassigned) [P6]
≥ 80%: percent effect (mortality or growth inhibition) at 200 ppm [1] | percent control (mortality, anti-feedant effect or growth inhibition) at 200 ppm [2] | percent effect (mortality or growth inhibition) at 200 ppm [3] | percent control (mortality, anti-feedant effect or growth inhibition) at 200 ppm [4]

C[C@H](NC1=NS(C)(=O)=Nc2c1cc(Cl)cc2C(F)(F)F)c1nccnc1-c1cnccn1 (stereo partly drawn) [P19, 8-chloro-3-methyl-3-oxo-N-[(1S)-1-(3-pyrazin-2-ylpyrazin-2-yl)ethyl]-10-(trifluoromethyl)-3λ^6-thia-2,4-diazabicyclo[4.4.0]deca-1(6),2,4,7,9-pentaen-5-amine]
≥ 80%: percent effect (mortality or growth inhibition) at 200 ppm [1] | percent control (mortality, anti-feedant effect or growth inhibition) at 200 ppm [2] | percent effect (mortality or growth inhibition) at 200 ppm [3] | percent control (mortality, anti-feedant effect or growth inhibition) at 200 ppm [4]

CC(NC1=CS(C)(=O)=Nc2c1cc(C(F)(F)F)cc2C(F)(F)F)c1ncnn1-c1ccc(C#N)cn1 (stereo not shown) [P3]
≥ 80%: percent control (mortality, anti-feedant effect or growth inhibition) at 200 ppm [2] | percent control (mortality, anti-feedant effect or growth inhibition) at 200 ppm [4]

C[C@@H](c1ncnn1-c1cnccn1)N(C)C1=NS(C)(=O)=Nc2c1cc(Cl)cc2C(F)(F)F (stereo partly drawn) [P20, 8-chloro-N,3-dimethyl-3-oxo-N-[(1S)-1-(2-pyrazin-2-yl-1,2,4-triazol-3-yl)ethyl]-10-(trifluoromethyl)-3λ^6-thia-2,4-diazabicyclo[4.4.0]deca-1(6),2,4,7,9-pentaen-5-amine]
≥ 80%: percent effect (mortality or growth inhibition) at 200 ppm [1] | percent effect (mortality or growth inhibition) at 200 ppm [3] | percent control (mortality, anti-feedant effect or growth inhibition) at 200 ppm [4]

C[C@H](NC1=NS(C)(=O)=Nc2c(Cl)cc(C(F)(F)F)cc21)c1ncnn1-c1ccc(C#N)cn1 (stereo partly shown) [P15]
≥ 80%: percent effect (mortality or growth inhibition) at 200 ppm [1] | percent effect (mortality or growth inhibition) at 200 ppm [3] | percent control (mortality, anti-feedant effect or growth inhibition) at 200 ppm [4]

C[C@H](NC1=NS(C)(=O)=Nc2c(Cl)cc(C(F)(F)F)cc21)c1ncnn1-c1ncccn1 (stereo partly drawn) [P13, 10-chloro-3-methyl-3-oxo-N-[(1S)-1-(2-pyrimidin-2-yl-1,2,4-triazol-3-yl)ethyl]-8-(trifluoromethyl)-3λ^6-thia-2,4-diazabicyclo[4.4.0]deca-1(6),2,4,7,9-pentaen-5-amine]
≥ 80%: mortality at 200 ppm [5] | percent effect (mortality or growth inhibition) at 200 ppm [1] | percent effect (mortality or growth inhibition) at 200 ppm [3] | mortality at 12 ppm [6] | percent control (mortality, anti-feedant effect or growth inhibition) at 200 ppm [4]

C[C@H](NC1=NS(C)(=O)=Nc2c(Br)cc(Br)cc21)c1ncnn1-c1cnccn1 (stereo partly drawn) [P11, 8,10-dibromo-3-methyl-3-oxo-N-[(1S)-1-(2-pyrazin-2-yl-1,2,4-triazol-3-yl)ethyl]-3λ^6-thia-2,4-diazabicyclo[4.4.0]deca-1(6),2,4,7,9-pentaen-5-amine]
≥ 80%: percent effect (mortality or growth inhibition) at 200 ppm [1] | percent control (mortality, anti-feedant effect or growth inhibition) at 200 ppm [2] | percent effect (mortality or growth inhibition) at 200 ppm [3] | percent control (mortality, anti-feedant effect or growth inhibition) at 200 ppm [4]

C[C@H](NC1=N[S@](C)(=O)=Nc2c(Br)cc(Br)cc21)c1ncnn1-c1ccc(C#N)cn1 (single isomer, unassigned) [P7]
≥ 80%: percent effect (mortality or growth inhibition) at 200 ppm [1] | percent control (mortality, anti-feedant effect or growth inhibition) at 200 ppm [2] | percent effect (mortality or growth inhibition) at 200 ppm [3] | percent control (mortality, anti-feedant effect or growth inhibition) at 200 ppm [4]

CC(NC1=NS(C)(=O)=Nc2c(Br)cc(Br)cc21)c1ncnn1-c1ccc(C#N)cn1 (stereo not shown) [P4, 6-[5-[1-[(8,10-dibromo-3-methyl-3-oxo-3λ^6-thia-2,4-diazabicyclo[4.4.0]deca-1(10),2,4,6,8-pentaen-5-yl)amino]ethyl]-1,2,4-triazol-1-yl]pyridine-3-carbonitrile]
≥ 80%: percent effect (mortality or growth inhibition) at 200 ppm [1] | percent control (mortality, anti-feedant effect or growth inhibition) at 200 ppm [2] | percent effect (mortality or growth inhibition) at 200 ppm [3] | percent control (mortality, anti-feedant effect or growth inhibition) at 200 ppm [4]

C[C@H](NC1=NS(C)(=O)=Nc2c1cc(Cl)cc2C(F)(F)F)c1ncnn1-c1cnccn1 (stereo partly drawn) [P17, 8-chloro-3-methyl-3-oxo-N-[(1S)-1-(2-pyrazin-2-yl-1,2,4-triazol-3-yl)ethyl]-10-(trifluoromethyl)-3λ^6-thia-2,4-diazabicyclo[4.4.0]deca-1(6),2,4,7,9-pentaen-5-amine]
≥ 80%: percent effect (mortality or growth inhibition) at 200 ppm [1] | percent effect (mortality or growth inhibition) at 200 ppm [3] | percent control (mortality, anti-feedant effect or growth inhibition) at 200 ppm [4]

C[C@H](NC1=NS(C)(=O)=Nc2c1cc(Cl)cc2C(F)(F)F)c1ncnn1-c1ncccn1 (stereo partly drawn) [P18, 8-chloro-3-methyl-3-oxo-N-[(1S)-1-(2-pyrimidin-2-yl-1,2,4-triazol-3-yl)ethyl]-10-(trifluoromethyl)-3λ^6-thia-2,4-diazabicyclo[4.4.0]deca-1(6),2,4,7,9-pentaen-5-amine]
≥ 80%: percent effect (mortality or growth inhibition) at 200 ppm [1] | percent control (mortality, anti-feedant effect or growth inhibition) at 200 ppm [2] | percent effect (mortality or growth inhibition) at 200 ppm [3] | mortality at 12 ppm [6] | percent control (mortality, anti-feedant effect or growth inhibition) at 200 ppm [4]

C[C@H](NC1=N[S@@](C)(=O)=Nc2ccc(Br)cc21)c1ncnn1-c1ccc(C#N)cn1 (single isomer, unassigned) [P9]
≥ 80%: percent effect (mortality or growth inhibition) at 200 ppm [1] | percent control (mortality, anti-feedant effect or growth inhibition) at 200 ppm [2] | percent effect (mortality or growth inhibition) at 200 ppm [3] | percent control (mortality, anti-feedant effect or growth inhibition) at 200 ppm [4]

C[C@H](NC1=N[S@](C)(=O)=Nc2ccc(Br)cc21)c1ncnn1-c1ccc(C#N)cn1 (single isomer, unassigned) [P8]
≥ 80%: percent effect (mortality or growth inhibition) at 200 ppm [1] | percent control (mortality, anti-feedant effect or growth inhibition) at 200 ppm [2] | percent control (mortality, anti-feedant effect or growth inhibition) at 200 ppm [4]

C[C@H](NC1=NS(C)(=O)=Nc2c(Cl)cc(C(F)(F)F)cc21)c1nccnc1-c1cnccn1 (stereo partly drawn) [P12, 10-chloro-3-methyl-3-oxo-N-[(1S)-1-(3-pyrazin-2-ylpyrazin-2-yl)ethyl]-8-(trifluoromethyl)-3λ^6-thia-2,4-diazabicyclo[4.4.0]deca-1(6),2,4,7,9-pentaen-5-amine]
≥ 80%: percent effect (mortality or growth inhibition) at 200 ppm [1] | percent effect (mortality or growth inhibition) at 200 ppm [3] | percent control (mortality, anti-feedant effect or growth inhibition) at 200 ppm [4]

C[C@H](NC1=NS(C)(=O)=Nc2c(Br)cc(Br)cc21)c1ncnn1-c1ccc(C#N)cn1 (stereo partly drawn) [P5, 6-[5-[(1S)-1-[(8,10-dibromo-3-methyl-3-oxo-3λ^6-thia-2,4-diazabicyclo[4.4.0]deca-1(10),2,4,6,8-pentaen-5-yl)amino]ethyl]-1,2,4-triazol-1-yl]pyridine-3-carbonitrile]
≥ 80%: percent effect (mortality or growth inhibition) at 200 ppm [1] | percent control (mortality, anti-feedant effect or growth inhibition) at 200 ppm [2] | percent effect (mortality or growth inhibition) at 200 ppm [3] | percent control (mortality, anti-feedant effect or growth inhibition) at 200 ppm [4]

C[C@H](NC1=NS(C)(=O)=Nc2c1cc(Cl)cc2C(F)(F)F)c1ncnn1-c1ccc(C#N)cn1 (stereo partly shown) [P16]
≥ 80%: percent effect (mortality or growth inhibition) at 200 ppm [1] | percent control (mortality, anti-feedant effect or growth inhibition) at 200 ppm [2] | percent effect (mortality or growth inhibition) at 200 ppm [3] | mortality at 12 ppm [6] | percent control (mortality, anti-feedant effect or growth inhibition) at 200 ppm [4]
